Source: US8993554B2, “Tetrahydroquinoline derivatives useful as bromodomain inhibitors” (GlaxoSmithKline LLC, priority 2011, dated 2015)
Counter-ions that a name gives are not always drawn.

Tested on: LPS induced IL-6 secretion from whole blood
Experiment: Measurement of LPS Induced IL-6 Secretion from Whole Blood
Assay type: cell-based
Conditions: IL-6 by immunoassay, LPS 200 ng/ml, 24 hours
Description: Activation of monocytic cells by agonists of toll-like receptors such as bacterial lipopolysaccharide (LPS) results in production of key inflammatory mediators including IL-6. Such pathways are widely considered to be central to the pathophysiology of a range of auto-immune and inflammatory disorders.
Compounds to be tested are diluted to give a range of appropriate concentrations of which 1 μl of the diluted stocks is added to a 96 well plate. Following addition of whole blood (130 μl) the plates are incubated at 37 degrees (5% CO2) for 30 min before the addition of 10 μl of 2.8 ug/ml LPS, diluted in complete RPMI 1640 (final concentration=200 ng/ml), to give a total volume of 140 μl per well. After further incubation for 24 hours at 37 degrees, 140 μl of PBS are added to each well. The plates are sealed, shaken for 10 minutes and then centrifuged (2500 rpm×10 min). 100 μl of the supernatant are removed and IL-6 levels assayed by immunoassay (typically by MesoScale Discovery technology) either immediately or following storage at −20 degrees. Concentration response curves for each compound was generated from the data and an IC50 value was calculated.

IC50, 0.0501 to 3.16 µM:
CC(=O)N1c2ccc(-c3ccc(C(=O)NCCN(C)C)cc3)cc2[C@H](Nc2ccc(Cl)cc2)C[C@@H]1C [Example 38, 4-((2S,4R)-1-acetyl-4-((4-chlorophenyl)amino)-2-methyl-1,2,3,4-tetrahydroquinolin-6-yl)-N-(2-(dimethylamino)ethyl)benzamide]
CC(=O)N1c2ccc(-c3ccc(C(=O)NCCO)cc3)cc2[C@H](Nc2ccc(Cl)cc2)C[C@@H]1C [Example 40, 4-((2S,4R)-1-acetyl-4-((4-chlorophenyl)amino)-2-methyl-1,2,3,4-tetrahydroquinolin-6-yl)-N-(2-hydroxyethyl)benzamide]
CC(=O)N1c2ccc(-c3ccc(C(=O)NC[C@H](C)O)cc3)cc2[C@H](Nc2ccc(Cl)cc2)C[C@@H]1C [Example 42, 4-((2S,4R)-1-acetyl-4-((4-chlorophenyl)amino)-2-methyl-1,2,3,4-tetrahydroquinolin-6-yl)-N—((S)-2-hydroxypropyl)benzamide]
CC(=O)N1c2ccc(-c3ccc(C(=O)NCCN)cc3)cc2[C@H](Nc2ccc(Cl)cc2)C[C@@H]1C [Example 44, 4-((2S,4R)-1-acetyl-4-((4-chlorophenyl)amino)-2-methyl-1,2,3,4-tetrahydroquinolin-6-yl)-N-(2-aminoethyl)benzamide]
CC(=O)N1c2ccc(-c3ccc(C(=O)NCCN(C)C)cc3)cc2[C@H](Nc2ccccc2)C[C@@H]1C [Example 45, 4-((2S,4R)-1-acetyl-2-methyl-4-(phenylamino)-1,2,3,4-tetrahydroquinolin-6-yl)-N-(2-(dimethylamino)ethyl)benzamide]
CC(=O)N1c2ccc(-c3ccc(C(=O)NCCO)cc3)cc2[C@H](Nc2ccccc2)C[C@@H]1C [Example 46, 4-((2S,4R)-1-acetyl-2-methyl-4-(phenylamino)-1,2,3,4-tetrahydroquinolin-6-yl)-N-(2-hydroxyethyl)benzamide]
CC(=O)N1c2ccc(-c3ccc(C(=O)N4CCNCC4)nc3)cc2[C@H](Nc2ccc(C#N)cn2)C[C@@H]1C [Example 48, 6-(((2S,4R)-1-acetyl-2-methyl-6-(6-(piperazine-1-carbonyl)pyridin-3-yl)-1,2,3,4-tetrahydroquinolin-4-yl)amino)nicotinonitrile]
CC(=O)N1c2ccc(-c3ccc(C(=O)NCCO)nc3)cc2[C@H](Nc2cnc(C#N)cn2)C[C@@H]1C [Example 49, 5-((2S,4R)-1-acetyl-4-((5-cyanopyrazin-2-yl)amino)-2-methyl-1,2,3,4-tetrahydroquinolin-6-yl)-N-(2-hydroxyethyl)picolinamide]
CC(=O)N1c2ccc(-c3ccc(C(=O)N4CCOCC4)nc3)cc2[C@H](Nc2ccc(C)cn2)C[C@@H]1C [Example 51, 1-((2S,4R)-2-methyl-4-((5-methylpyridin-2-yl)amino)-6-(6-(morpholine-4-carbonyl)pyridin-3-yl)-3,4-dihydroquinolin-1(2H)-yl)ethanone]
CC(=O)N1c2ccc(-c3ccc(C(=O)N4CCOCC4)nc3)cc2[C@H](Nc2ccc(Cl)cn2)C[C@@H]1C [Example 52, 1-((2S,4R)-4-((5-chloropyridin-2-yl)amino)-2-methyl-6-(6-(morpholine-4-carbonyl)pyridin-3-yl)-3,4-dihydroquinolin-1(2H)-yl)ethanone]
CC(=O)N1c2ccc(-c3ccc(C(=O)N4CCOCC4)nc3)cc2[C@H](Nc2cnc(C)cn2)C[C@@H]1C [Example 54, 1-((2S,4R)-2-methyl-4-((5-methylpyrazin-2-yl)amino)-6-(6-(morpholine-4-carbonyl)pyridin-3-yl)-3,4-dihydroquinolin-1(2H)-yl)ethanone]
CC(=O)N1c2ccc(-c3ccc(C(=O)N4CCOCC4)cc3)cc2[C@H](Nc2ccc(C)cn2)C[C@@H]1C [Example 56, 1-((2S,4R)-2-methyl-4-((5-methylpyridin-2-yl)amino)-6-(4-(morpholine-4-carbonyl)phenyl)-3,4-dihydroquinolin-1(2H)-yl)ethanone formate]
CC(=O)N1c2ccc(-c3ccc(C(=O)N4CCOCC4)cn3)cc2[C@H](Nc2ccc(Cl)cn2)C[C@@H]1C [Example 57, 1-((2S,4R)-4-((5-chloropyridin-2-yl)amino)-2-methyl-6-(5-(morpholine-4-carbonyl)pyridin-2-yl)-3,4-dihydroquinolin-1(2H)-yl)ethanone]
CC(=O)N1c2ccc(-c3ccc(C(=O)N4CCOCC4)cn3)cc2[C@H](Nc2cnccn2)C[C@@H]1C [Example 58, 1-((2S,4R)-2-methyl-6-(5-(morpholine-4-carbonyl)pyridin-2-yl)-4-(pyrazin-2-ylamino)-3,4-dihydroquinolin-1(2H)-yl)ethanone]
CC(=O)N1c2ccc(-c3ccc(C(=O)N4CCOCC4)cn3)cc2[C@H](Nc2ccc(C)cn2)C[C@@H]1C [Example 59, 1-((2S,4R)-2-methyl-4-((5-methylpyridin-2-yl)amino)-6-(5-(morpholine-4-carbonyl)pyridin-2-yl)-3,4-dihydroquinolin-1(2H)-yl)ethanone]
CC(=O)N1c2ccc(-c3ccc(C(=O)N4CCOCC4)cn3)cc2[C@H](Nc2cnc(C)cn2)C[C@@H]1C [Example 60, 1-((2S,4R)-2-methyl-4-((5-methylpyrazin-2-yl)amino)-6-(5-(morpholine-4-carbonyl)pyridin-2-yl)-3,4-dihydroquinolin-1(2H)-yl)ethanone]
CC(=O)N1c2ccc(-c3ccc(C(=O)N4CCOCC4)cn3)cc2[C@H](Nc2ccccn2)C[C@@H]1C [Example 61, 1-((2S,4R)-2-methyl-6-(5-(morpholine-4-carbonyl)pyridin-2-yl)-4-(pyridin-2-ylamino)-3,4-dihydroquinolin-1(2H)-yl)ethanone]
CC(=O)N1c2ccc(-c3ccc(C(=O)N4CCOCC4)nc3)cc2[C@H](Nc2cccc(Cl)c2)C[C@@H]1C [Example 62]
CC(=O)N1c2ccc(-c3ccc(C(=O)N4CCOCC4)cn3)cc2[C@H](Nc2cccc(Cl)c2)C[C@@H]1C [Example 63]
CC(=O)N1c2ccc(-c3ccc(C(=O)N4CCOCC4)cn3)cc2[C@H](Nc2ccc(Cl)cc2)C[C@@H]1C [Example 64, 1-((2S,4R)-4-((4-chlorophenyl)amino)-2-methyl-6-(5-(morpholine-4-carbonyl)pyridin-2-yl)-3,4-dihydroquinolin-1(2H)-yl)ethanone]
CC(=O)N1c2ccc(-c3ccc(C(=O)N4CCOCC4)cc3)cc2[C@H](Nc2ccc(C#N)cn2)C[C@@H]1C [Example 65, 6-(((2S,4R)-1-acetyl-2-methyl-6-(4-(morpholine-4-carbonyl)phenyl)-1,2,3,4-tetrahydroquinolin-4-yl)amino)nicotinonitrile]
CC(=O)N1c2ccc(-c3ccc(C(=O)N4CCCC4)cc3)cc2[C@H](Nc2ccc(C)cn2)C[C@@H]1C [Example 68, 1-((2S,4R)-2-methyl-4-((5-methylpyridin-2-yl)amino)-6-(4-(pyrrolidine-1-carbonyl)phenyl)-3,4-dihydroquinolin-1(2H)-yl)ethanone formate]
